Data on 2 compounds can be found in US11226337B2, “Chemoproteomic profiling of protein electrophilic and oxidative post-translational modifications” (Zenagem, LLC, priority 2017, dated 2022).

The experiment deals with T1, PLOD3 Procollagenlysine, 2oxoglutarate (O60568) (Homo sapiens, UniProt O60568).
T1 construct: In Situ Labelling of Cells with Hydrazine Probes for MS Experiments; endogenous in cells; host or cells: HEK293T and MDA-MB-231
T1 sequence (O60568 25-738): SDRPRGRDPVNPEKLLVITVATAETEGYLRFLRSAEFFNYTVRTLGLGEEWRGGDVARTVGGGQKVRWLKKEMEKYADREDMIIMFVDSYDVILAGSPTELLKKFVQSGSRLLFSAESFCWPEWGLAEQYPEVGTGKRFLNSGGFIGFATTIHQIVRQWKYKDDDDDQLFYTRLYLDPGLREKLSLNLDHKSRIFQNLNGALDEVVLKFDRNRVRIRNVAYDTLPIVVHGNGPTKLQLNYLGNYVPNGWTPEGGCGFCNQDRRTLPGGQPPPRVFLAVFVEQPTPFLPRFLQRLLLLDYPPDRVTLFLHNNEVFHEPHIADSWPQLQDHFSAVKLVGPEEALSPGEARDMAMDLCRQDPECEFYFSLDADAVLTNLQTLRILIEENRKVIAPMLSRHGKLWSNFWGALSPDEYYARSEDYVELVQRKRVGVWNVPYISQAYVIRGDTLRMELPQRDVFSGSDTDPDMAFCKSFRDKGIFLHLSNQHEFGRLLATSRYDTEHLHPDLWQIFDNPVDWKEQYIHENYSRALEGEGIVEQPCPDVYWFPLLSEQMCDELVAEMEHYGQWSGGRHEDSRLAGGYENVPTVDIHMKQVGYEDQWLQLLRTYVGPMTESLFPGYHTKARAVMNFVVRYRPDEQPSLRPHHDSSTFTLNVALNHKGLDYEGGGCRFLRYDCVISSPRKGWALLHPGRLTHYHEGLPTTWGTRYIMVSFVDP
Kind of experiment: SILAC RP-ABPP. The format is cell-based. The note with it: SILAC H/L.

`C#CCNN.Cl` [probe 1, prop-2-yn-1-ylhydrazine hydrochloride] came in with an enrichment ratioavg (probe 1 3 mM 0.5 h vs probe 3, MDA-MB-231) of 14. This compound also gave a competition ratioavg (probe 1 vs probe 1+10x probe 3, MDA-MB-231) of 2.
`C#CCCNC(=O)c1ccc(NN)cc1.Cl` [probe 2, N-(but-3-yn-1-yl)-4-hydrazinylbenzamide hydrochloride] had an enrichment ratioavg (probe 2 1 mM 0.5 h vs probe 4, HEK293T) of 20. Further, the competition ratioavg (probe 2 vs probe 2+10x probe 4, HEK293T) was found to be 6.
